How the values were obtained:
Cln3^Δex7-8 mice = experiment: Microglial activation, CD68 immunohistochemistry in brain sections; type: in vivo, mouse; details: analyzed regions VPM/VPL, DLG, S1BF, V1 (FIG. 2A-D)
Experimental: Cln3^Δex7-8 mice were obtained from the Jackson Laboratory. Control (C57BL/6J) and Cln3^Δex7-8 mice were housed 3-4 per cage in a room with a 12-h light/12-h dark cycle. Food and water were provided ad libitum. All mice used in this study were analyzed at 8 and 12 months of age and were littermates produced by crossing heterozygous Cln3^Δex7-8 mice. Only males were used for this analysis. Investigators were blinded when analyzing the data, and no randomization was necessary.
For oral administration, Trehalose was dissolved in drinking water to a final concentration of 2% and changed twice a week. Trehalose-containing water was given to Cln3^Δex7-8 mice and WT mice by spontaneous oral administration starting at 21 days of age and continuing until the day the mice were sacrificed for neuropathology studies.
Miglustat was administered in mixture with the food pellet starting at 21 days of age and continuing until the day the mice were sacrificed for neuropathology studies. Miglustat food was prepared by TestDiet using the 5V5R rodent diet (LabDiet). Two concentrations were used: 1.2 g/Kg chow (indicated as “low concentration”) and 7.2 g/Kg chow (indicated as “high concentration”) and two separate groups of Cln3^Δex7-8 mice were fed with either diet. One additional group of Cln3^Δex7-8 l mice was fed with a combination of the low-concentration Miglustat food and 2% Trehalose water.
Twelve-month-old homozygous Cln3^Δex7-8 mice and age-matched controls (WT mice) were anaesthetized with isoflurane and transcardially perfused with PBS followed by 4% buffered paraformaldehyde in 0.1 M sodium phosphate buffer, pH 7.4. Brains were subsequently removed and postfixed overnight. Before sectioning, the brains were cryoprotected in a solution containing 30% sucrose in Tris-buffered saline (TBS: 50 mM Tris, pH 7.6). Consecutive 40 μm floating coronal sections were collected in 96-well plates. Series of sections were then stained with primary antisera against CD68 (AbD
Serotec, Cat. No. MCA1957), GFAP (DAKO, Cat. No. Z0334), Subunit C of mitochondrial ATP synthase (SCMAS; Abcam, Cat. No. ab181243), or cleaved caspase 3 (Asp175) (Cell Signaling, Cat. No. 9661S) followed by either rabbit anti-rat (VectorLab) or swine anti-rabbit (DAKO) secondary antibodies, and immunoreactivity detected with Vectastain ABC (avidin-biotin) kit (Vector) and diaminobenzidine as a chromogen.
Non-overlapping images were captured, on three consecutive sections, through each region of interest. All RGB images were captured via a live video camera (JVC, 3CCD, KY-F55B), mounted onto a Zeiss Axioplan microscope using a x 40 objective and saved as JPEGs. All parameters including lamp intensity, video camera set-up and calibration were maintained constant throughout image capturing. For quantification of storage and inflammation, images were analyzed using ImageJ analysis software (NIH), using an appropriate threshold that selected the foreground immunoreactivity above background. This threshold was then applied as a constant to all subsequent images analyzed per batch of animals and reagent used to determine the specific area of immunoreactivity for each antigen in each region. […] For quantification of cell death, images were analyzed manually and scored for the presence of apoptotic nuclei. […]
(S1BF), the primary visual (V1) cortex, and the dorsolateral geniculate (DLG) (Pontikis et al., 2005). To quantify microglial activation, antibodies against the microglial marker CD68 were used. […]

[1] = Tissue concentrations of Trehalose (liver, brain) by LC-MS/MS; type: in vivo, mouse
Experimental: LC-MS/MS bioanalytical methodologies were developed for the analysis of Trehalose, Miglustat and glucose in mouse whole blood and brain.
Tissue samples were homogenized in 8 volumes of sterile distilled water and 1 volume of TCA (20% in water) to generate a final concentration of 2% TCA, homogenates were centrifuged at 13000 rpm for 15 min at 4° C. and the supernatant transferred to a fresh plate. At the time of analysis, 1 volume of acetonitrile containing an internal standard was added in order to match the initial chromatography conditions, samples were centrifuged at 4350 rpm for 10 min at ambient temperature, and the resultant supernatant transferred for analysis on the LC-MS/MS.
The purpose of this example was to compare the blood PK of unlabelled high doses of Trehalose after IV and PO administration, with and without Miglustat PO dosing. For the IV comparison, Trehalose was dosed as an IV bolus dose 15 min after PO dosing of Miglustat. For the PO comparison Miglustat was dosed simultaneously with Trehalose. Fasted male C57BL6/N mice were dosed as detailed in Table III: […]

[2] = 1 g/kg trehalose IV + 150 mg/kg miglustat PO, 180 min post-dose
[3] = 1 g/kg trehalose IV, 180 min post-dose

## OC[C@H]1O[C@H](O[C@H]2O[C@H](CO)[C@@H](O)[C@H](O)[C@H]2O)[C@H](O)[C@@H](O)[C@@H]1O [Trehalose, α-D-glucopyranosyl α-D-glucopyranoside dihydrate]
Cln3^Δex7-8 mice
  microglial activation (CD68): partially mitigated
[1]; [2]
  Concentration of Trehalose, Brain L: 10.8 ± 2.0 nmol/g
  Concentration of Trehalose, Brain R: 10.5 ± 1.7 nmol/g
  Concentration of Trehalose, Liver: 278.6 ± 96.6 nmol/g
[1]; [3]
  Concentration of Trehalose, Brain L: 6.9 ± 1.9 nmol/g
  Concentration of Trehalose, Brain R: 7.3 ± 0.9 nmol/g
  Concentration of Trehalose, Liver: 167.9 ± 24.6 nmol/g
[1]; IV Trehalose in combination with oral Miglustat, 180 min post-dose
  brain exposure of Trehalose: about 10 nmol/g
[1]; IV Trehalose, 180 min post-dose
  brain exposure of Trehalose: about 7 nmol/g
[1]; PO Trehalose
  brain exposure of Trehalose: 2.5 nmol/g
